Measured values reported in patent US8367614B2, “Rheumatoid arthritis-preventive agent for oral intake” (Calpis Co., Ltd, priority 2006, dated 2013).

Columns and labels:
[1] = test system: adjuvant arthritis; assay: Adjuvant arthritis in rats, arthritis score (Example 2)
[2] = test system: adjuvant arthritis; assay: Adjuvant arthritis in rats, arthritis score (Example 1 and Comparative Examples 1-3); type: in vivo, Female Lewis rats; conditions: test material 10% in 0.5% CMC, 1 ml/100 g oral once a day, average ± standard error

In the case of `CC(C)Cc1ccc(C(C)C(=O)O)cc1` (stereo not drawn) [Ibuprofen], the Arthritis score ([1]; Ibuprofen 0.3% in 0.5% CMC, 1 ml/100 g oral once a day, day 0) is reported as 0, the Arthritis score ([1]; Ibuprofen 0.3%, oral once a day, day 5) is reported as 0 and the Arthritis score ([1]; Ibuprofen 0.3%, oral once a day, day 9) is reported as 0.1 ± 0.1. For the same compound, the Arthritis score ([1]; Ibuprofen 0.3%, oral once a day, day 14) was 6.5 ± 0.6, the Arthritis score ([1]; Ibuprofen 0.3%, oral once a day, day 19) was 9.0 ± 0.5 and the Arthritis score ([1]; Ibuprofen 0.3%, oral once a day, day 21) was 9.5 ± 0.3.

For sodium caseinate [Comp. Ex. 2], the Arthritis score ([2]; day 0 to 21, day 0, max 12 points) was 0.00, the Arthritis score ([2]; day 5) was 0.00 and the Arthritis score ([2]; day 9) was 1.25 ± 0.37. It also gave an Arthritis score ([2]; day 14) of 8.25 ± 0.62, an Arthritis score ([2]; day 19) of 10.50 ± 0.33 and an Arthritis score ([2]; day 22) of 10.38 ± 0.32.
